The source of these data is patent US5691366A, “Nitro compounds, process for preparation thereof and use thereof” (Fujisawa Pharmaceutical Co., Ltd., priority 1991, dated 1997).

Assay [1] deals with human platelet aggregation. Description: Inhibition of human platelet aggregation (anti-platelet aggregation activity). It counts as cell-based. The settings on record: Homo sapiens, Platelet, Inducer: ADP 2.5 μM; human PRP; concentration required to inhibit aggregation by 50%; read-out: ED50 (the source's name). As to the method:
Inhibitory activity of the nitro compounds of this invention against human platelet aggregation was measured according to the method described below.
Blood was collected from human volunteers. The blood was prevented from coagulation with 1 volume of 3.8% sodium citrate to 9 volumes of blood. Platelet rich plasma (PRP) was prepared by centrifugation of the blood at 1300 rpm for 10 min. at 10° C. The PRP was diluted with platelet poor plasma obtained by further centrifugation of the blood at 3000 rpm for 10 min. The platelet counts in the PRP used for aggregation studies were about 4.0×10^5 platelets/mm^3. Aggregation studies were performed turbidimetrically using NKK HEMATRACER 1. To 225 μl of PRP 25 μl of the test compounds was added and preincubated for 2 min. After preincubation 5 μl of aggregating agents were added to the mixture. Collagen and ADP were used as aggregating agents at the concentrations of 0.5 μg/ml and 2.5 μM, respectively. Activities of the test compounds were expressed as ED50 values i.e. concentrations required to inhibit the platelet aggregation responses by 50%.

In assay [2] the test system is Mean Arterial Blood Pressure in Anesthetized Rats. Description: Effect on mean arterial blood pressure in anesthetized rats (intravenous). It counts as in vivo, rat (male Sprague-Dawley). The conditions noted are these: for Hypotensive effect T 1/2: i.v., time to recover to half of maximal decrease. As to the method:
Male Sprague-Dawley rats, aged 9-12 weeks, were anesthetized with urethane (1.4 g/kg i.p.). A polyethylene cannula filled with heparin solution was inserted into the femoral artery of the rats to measure mean blood pressure. Mean blood pressure was measured with a pressure transducer and recorded on a polygraph. The test compound dissolved in ethanol, polyethylene glycol and distilled water (1:1:2), were administered intraveneously in a volume of 0.25 ml/kg. Intravenous hypothypotensive effects of each compound were expressed as the maximal decrease (R max) and the half time (T 1/2). Briefly, R max was expressed as maximal % change compared to mean blood pressure prior to the administration of compound. T 1/2 was expressed as a time during which the hypotensive effect recovered to half of the maximal decrease.

In assay [3] the test system is Mean Arterial Blood Pressure in Conscious Rats. Description: Effect on mean arterial blood pressure in conscious rats (oral). It counts as in vivo, rat (male Sprague-Dawley). The conditions noted are these: for Hypotensive effect Dur.: time to recover to 5% of maximal decrease; for Hypotensive effect T 1/2: time to recover to half of maximal decrease; for inhibition in vivo at 3.2 mg/kg / inhibition in vivo at 10 mg/kg / inhibition in vivo at 32 mg/kg: Rattus norvegicus, po, maximal % decrease of mean blood pressure, read-out: Hypotensive effect R max. The protocol: Male Sprague-Dawley rats, aged 9-11 weeks, were anesthetized with ether and a polyethylene cannula filled with heparin solution was inserted into the femoral artery of the rats to measure mean blood pressure. Mean blood pressure was measured with a pressure transducer and recorded on a polygraph. Two hours after operation, the drug suspended in 0.5% methyl cellulose was administered orally in a volume of 5 ml/kg. Oral hypotensive effects of each compound were expressed as the maximal decrease (R max), the half time (T 1/2) and the duration (Dur.). Briefly, R max was expressed as maximal % change compared to mean blood pressure prior to the administration of compound. T 1/2 was expressed as a time during which the hypotensive effect recovered to half of the maximal decrease. Duration was expressed as a time during which the hypotensive effect recovered to 5% of the maximal decrease.

In assay [4] the test system is thoracic aorta from male Sprague-Dawley rats. Description: Vasodilating activity in vitro (relaxation of norepinephrine-contracted aortic strips). The conditions noted are these: rat aorta helical strips contracted by 3.2×10^-8 g/ml norepinephrine, 37° C. On the set-up: species or system rat (male Sprague-Dawley). As to the method:
The thoracic aorta from male Sprague-Dawley rats, aged 9-11 weeks, were removed and cut into helical strips after removal of excess fat and connective tissues. The strips were mounted vertically in organ baths containing 25 ml Tyrode solution and isometric tension was measured. The tissue bath solution was maintained at 37° C. and bubbled with a 95% O2 and 5% CO2 gas mixture. After the resting tension was adjusted to 0.5 g, the strips were contracted by 3.2×10^-8 g/ml of norepinephrine (NE). The test compound dissolved in ethanol, polyethylene glycol and distilled water (1:1:2) were added to the organ bath cumulatively.
Then, relaxative activity of test compound was expressed as IC50 value i.e. concentration required to inhibit the contraction response by 50%.

The mark [5] stands for this setting: Rattus norvegicus, iv, 0.32 mg/kg, maximal % decrease of mean blood pressure, read-out: Hypotensive effect R max.

Molecules are shown by their SMILES.

Take `CCC(=CC(CNC(C)=O)=NO)C(C)[N+](=O)[O-]` (single isomer, unassigned) [Example 5 A, 1-Acetylamino-4-ethyl-2-hydroxyimino-5-nitro-3-hexene]: the IC50 in assay [1] stood at 5.1 µM; in assay [4] (Rattus norvegicus) it was 46.9 µM. The inhibition in vivo at 0.32 mg/kg in assay [2] (setting [5]) was determined as 49.9%. The “Hypotensive effect T 1/2” value in assay [2] (0.1 mg/kg) stood at 7.6 min; in assay [2] (0.32 mg/kg), 12.8 min; in assay [3] (3.2 mg/kg), 16 min; in assay [3] (10 mg/kg), 25 min; in assay [3] (32 mg/kg), 75.6 min. For the same compound, the results for the “Hypotensive effect Dur.” value in assay [3] (3.2 mg/kg), in assay [3] (10 mg/kg) and in assay [3] (32 mg/kg) were 30.8 min, 83.9 min and 144.2 min, respectively. In addition, in assay [3] (3.2 mg/kg), the inhibition in vivo at 3.2 mg/kg came out at 27.2%. In addition, the inhibition in vivo at 10 mg/kg in assay [3] (10 mg/kg) came out at 54.4%. The inhibition in vivo at 32 mg/kg in assay [3] (32 mg/kg) was 60.6%.
Regarding `CCC(=CC(CNC(=O)c1cccnc1)=NO)C(C)[N+](=O)[O-]` (centres unmarked) [Example 6 A], the values for the IC50 in assay [1] and in assay [4] were 1.8 µM and 25.1 µM, respectively. In addition, the inhibition in vivo at 0.1 mg/kg in assay [2] (Rattus norvegicus, iv, 0.1 mg/kg, maximal % decrease of mean blood pressure, read-out: Hypotensive effect R max) was determined as 16.9%. Moreover, the inhibition in vivo at 0.32 mg/kg in assay [2] (setting [5]) amounted to 36.3%. The “Hypotensive effect T 1/2” value in assay [2] (0.1 mg/kg) worked out at 6.8 min; in assay [2] (0.32 mg/kg) it was 11.2 min; in assay [3] (3.2 mg/kg) it was 20 min; in assay [3] (10 mg/kg) it was 30 min; in assay [3] (32 mg/kg), 117 min. Besides, the “Hypotensive effect Dur.” value was 29.3 min in assay [3] (3.2 mg/kg), 116.0 min in assay [3] (10 mg/kg) and above 300 min in assay [3] (32 mg/kg). The inhibition in vivo at 3.2 mg/kg in assay [3] (3.2 mg/kg) is 22.3%. Further, in assay [3] (10 mg/kg), the inhibition in vivo at 10 mg/kg turned out to be 27.2%. For the same compound, in assay [3] (32 mg/kg), the inhibition in vivo at 32 mg/kg was 29.6%.
